Reference: US12016860B2, “Combination therapies with Cbl-b inhibitor compounds” (Nurix Therapeutics, Inc., priority 2021, dated 2024)

How the values were obtained:
CT26 tumors [1] = test: CT26 tumor model with depleting antibodies for CD4+, CD8+ or NK cells; assay type: in vivo, mice; settings: 30 mg/kg PO QD Day 9 to 25
Method: Tumor volume at Day 25 is indicated. CD8+ T-cell or NK cell depletion abrogates compound 23 activity. Stats were calculated with Mann-Whitney (Vehicle vs. compound 23) or one-way ANOVA with Dunn's multiple comparisons test (compound 23 vs. Depletion groups); (*P≤0.05, **P≤0.01, ****P≤0.0001). The efficacy of compound 23 on tumors is CD8+ T function and on NK cell function.

[2] = system: BT549 (BRCA wild type) cells; test: Caspase 3/7 apoptosis Incucyte assay with olaparib, BT549; assay type: cell-based; settings: 1 μM compound 23, 0.05 μM olaparib, vs 0.05% DMSO, combination also vs single agents p<0.0001
Method: BT549 (BRCA wild type) (A) and DoTc 4510 (BRCA2 mutated) (B) cells were seeded in duplicate into tissue culture treated black-sided, clear-bottom 96-well plates at 5,000^cells/well and allowed to adhere and establish for 24 h. Cells were treated with indicated concentrations of DMSO, compound 23, or Olaparib (FIGS. 13A and 13B) either alone or in combination and were labelled with 1× Essen Bioscience IncuCyte® Caspase-3/7 Green Reagent (final concentration 5 μM). Treated plates were imaged every 2 hours for 72 hours with the IncuCyte® S3 Live-Cell Analysis System. At each timepoint, one image per well was taken in both brightfield and FITC channels on the IncuCyte® S3 Live-Cell Analysis System. Images were analyzed for number of green objects per mm^2 using the IncuCyte S3 v2017A software.
Using a caspase 3/7 apoptosis Incucyte assay, the effect of compound 23, PARPi and the combination of compound 23, and PARPi on tumor cell apoptosis was assessed in both BRCA wild type and mutated tumor cell lines in vitro.

orthotopic 4T1 tumors [3] = test: Flow cytometry of tumor and blood CD8+ T-cells in 4T1-tumor-bearing mice; assay type: in vivo; settings: Day 28
orthotopic 4T1 tumors [4] = test: Orthotopic 4T1 model, combination with anti-PD-1 antibody; assay type: in vivo, mice
Method: (§1) This example provides assays and results for treating tumor models in vivo with combinations of Cbl-b compounds and anti-PD1 antibodies as described herein. The antibody is a mouse anti-PD1 RMP1-14 antibody, useful in mouse in vivo assays as model for administration of human PD-1 axis antagonists for treatment of human cancer.
Beginning on Day 9, tumor volumes and body weights were measured twice weekly. […] Statistical significance of differences in the number of colonies between groups was evaluated using Kruskal-Wallis one-way ANOVA with Dunn's multiple comparisons test.

CT26 tumors [5] = test: CT26 tumor volume in mice, single agent oral dosing; assay type: in vivo; settings: oral administration in mice; colon carcinoma model CT26
Method: Mice bearing tumors on their left and right flanks were treated from Day 7 to Day 32 with oral compound 23 at 10 mg/kg (blue circles) or 30 mg/kg (red circles) or vehicle (black squares). Volumes at Day 25 are indicated. Statistics were calculated with one-way ANOVA and Dunn's multiple comparisons test **P≤0.01.

MC38 tumors = test: MC38 model, combination with anti-PD-1 antibody; assay type: in vivo, mice
Method: as §1
Beginning on Day 10, tumor volumes were measured twice weekly.

CT26 tumors [6] = test: CT26 model, combination with anti-PD-1 antibody; assay type: in vivo, mice
Method: as §1
FIG. 6 provides results in three tumor models. […] Beginning on Day 10, tumor volumes were measured twice weekly.

CT26 tumors [7] = test: Flow cytometry of tumor-infiltrating immune cells in CT26 tumors; assay type: in vivo, mice
Method: CT26 tumors were harvested after 19 doses of compound 23 or vehicle and tumor-infiltrating immune cell density and phenotype was assessed by flow cytometry.

4T1 tumors = test: 4T1 metastatic breast carcinoma survival model with primary tumor resection; assay type: in vivo, mice
Description: Another in vivo study evaluated the ability of compound 23 treatment, started before the primary tumor resection, to eradicate 4T1 breast carcinoma metastatic disease. The 4T1 triple negative mammary carcinoma is a transplantable tumor cell line that is highly tumorigenic and invasive and, unlike most tumor models, spontaneously metastasizes from a primary tumor growing in the mammary gland to multiple distant sites including lymph nodes, blood, liver, lung, brain, and bone. Tumor cells are easily transplanted into the mammary glands so that the primary tumor grows in the anatomically relevant site. The progressive spread of 4T1 metastases to other organs is very similar to that of human mammary cancer. Animals die from disseminated metastatic disease regardless of resection of the primary tumor (Pulaski et al., 2000, Current Protocols in Immunology 39(1):20.2.1-20.2.16). […] Beginning on Day 7, tumor volumes were measured twice weekly until they reached a mean tumor volume of 145 mm^3 when the primary tumors were resected on Day 14 and 15 (dotted line). Median survival time were calculated for each group and body weights were monitored until the end of the study on Day 140. Body weights were measured twice weekly then once weekly starting Day 47. […] Statistical significance of differences in conditional survival between groups was evaluated using the Log-rank (Mantel-Cox) test. […] Median survival is reported as undefined for the compound 23 group, as survival exceeds 50% at Day 140.

Raji cells [8] = test: Raji model in SCID mice with NK cell depletion (anti-asialo-GM1); assay type: in vivo; settings: p<0.0001
Method: Three additional groups of mice were treated in the presence of depleting antibodies for NK cells (anti-asialo-GM1).

Raji cells [9] = test: Raji human non-Hodgkin's lymphoma model in SCID mice, combination with rituximab
Method: Female CB17 mice with severe combined immunodeficiency (SCID) were intravenously (IV) injected in the tail vein with Raji cells on Day 0 and treated from Day 5 to Day 37 by administration of either: vehicle (0.5% methylcellulose, 0.2% Polysorbate 80 in deionized water+1 eq HCl) daily, orally (PO) or compound 23 at 30 mg/kg daily, PO. Anti-CD20 antibody (rituximab) at 20 mg/kg was intraperitoneally (IP) administered on Day 5, 10, and 15, either alone or in combination with compound 23 at 30 mg/kg daily, PO.

[10] = blood of 4T1-tumor-bearing mice
[11] = single agents vs vehicle, combination vs vehicle or either single agent

C[C@H]1CCCN(Cc2cc3c(c(C(F)(F)F)c2)CN(c2cccc([C@]4(c5nncn5C)C[C@@H](C)C4)c2)C3=O)C1 [compound 23]
effect of CD8+ T-cell depletion on compound activity (tumor volume at Day 25) (CT26 tumors [1]): abrogates | effect of NK cell depletion on compound activity (tumor volume at Day 25) (CT26 tumors [1]; anti-asialo-GM1): abrogates | tumor cell apoptosis (caspase 3/7) [2]: did not undergo a significant increase in apoptosis | frequency of tumor gp70 antigen-specific CD8+ T-cells (AH1 Dextramer+CD8+) (orthotopic 4T1 tumors [3]; 4T1 tumors, 30 mg/kg daily PO): increased | frequency of tumor gp70 antigen-specific CD8+ T-cells with exhaustion phenotype (PD-1+ LAG3+) (orthotopic 4T1 tumors [3]; 4T1 tumors, 30 mg/kg daily PO): decreased | frequency of circulating CD8+ T-cells with activated phenotype (PD-1+) (orthotopic 4T1 tumors [3]; [10]): increased | frequency of circulating CD8+ T-cells with memory phenotype (CD44+CD27+CD127+) (orthotopic 4T1 tumors [3]; [10]): increased | interaction with PD-1 antibody blockade (orthotopic 4T1 tumors [4]): synergizes | metastatic lung tumor burden (orthotopic 4T1 tumors [4]; lungs harvested Day 28, single agents vs vehicle, combination vs vehicle or either single agent): reduced metastatic lung tumor burden | primary tumor volume (orthotopic 4T1 tumors [4]; [11]): significantly smaller primary tumors | anti-tumor activity (CT26 tumors [5]): significant anti-tumor activity | interaction with PD-1 antibody blockade (MC38 tumors): synergizes | primary tumor volume (MC38 tumors; [11]): significantly smaller primary tumors | interaction with PD-1 antibody blockade (CT26 tumors [6]): synergizes | TGI (CT26 tumors [6]; compared to vehicle controls, compound 23 30 mg/kg daily PO, anti-PD-1 10 mg/kg twice weekly IP): 62% | tumor volume compared to vehicle controls (CT26 tumors [6]; compound 23 30 mg/kg daily PO): significantly reduced tumor volume | median survival time (CT26 tumors [6]; compound 23 30 mg/kg daily PO, anti-PD-1 10 mg/kg twice weekly IP, controls 27 days): 38 days | CD8+ T-cells to Tregs ratio (CT26 tumors [7]; 19 doses): increased | CD8+ effector T-cells (PD1+) to Tregs ratio (CT26 tumors [7]; 19 doses): increased | frequency of CD8+ T-cells that express the activation marker CD29 (CT26 tumors [7]; 19 doses): increased | frequency of total CD3+ T-cells as a percentage of CD45+ leukocytes (CT26 tumors [7]; 19 doses): increased | frequency of total CD8+ T-cells as a percentage of CD45+ leukocytes (CT26 tumors [7]; 19 doses): increased | frequency of tumor-infiltrating NK cells with cytotoxic phenotype (Granzyme+) (CT26 tumors [7]; 19 doses): increased | number of total CD8+ T-cells per gram of tumor (CT26 tumors [7]; 19 doses): increased | number of tumor-infiltrating leukocytes (TIL) per gram of tumor (CT26 tumors [7]; 19 doses 30 mg/kg daily PO): increased | median survival time compared to vehicle control (4T1 tumors; 30 mg/kg daily PO Day 8 to 46, primary tumors resected Day 14 and 15): significantly increased | median survival (4T1 tumors; 30 mg/kg daily PO, study end Day 140): undefined | anti-tumor activity (4T1 tumors; oral administration in mice, metastatic triple negative breast tumor model 4T1): significant anti-tumor activity | effect of NK cell depletion on activity (survival) (Raji cells [8]): abrogates | survival compared to untreated mice (Raji cells [9]; compound 23 30 mg/kg daily PO, rituximab 20 mg/kg IP Day 5, 10, 15, p<0.0001): significantly higher | survival compared to mice treated with the combination of compound 23 and rituximab (Raji cells [9]; p<0.0001): significantly lower
